Reference: ChEMBL document CHEMBL4000231, “Natural potential neuroinflammatory inhibitors from Alhagi sparsifolia Shap” (Bioorg Med Chem Lett, 2017)

Key:
[1] = tested on: N9; assay: Cytotoxicity against LPS-induced mouse N9 cells assessed as decrease in cell viability at 1 to 100 ug/ml after 24 hrs by MTT assay; type: cell-based; settings: n9, 24 h
[2] = tested on: N9; assay: Antineuroinflammatory activity in mouse N9 cells assessed as inhibition of LPS-induced nitric oxide production after 24 hrs by Griess assay; type: functional, cell-based

Question: Which Activity [1] does the source give for `O=c1c(O)c(-c2ccc(O)c(O)c2)oc2cc(O)cc(O)c12` [QUERCETIN] here?
Answer: Non-Toxic

Question: What about the inhibition [2] of the same compound?
Answer: Dose-dependent effect

Question: How did the Activity [1] turn out when `CC1=CC(=O)CC(C)(C)[C@@]1(O)/C=C/C(C)=C\C(=O)O` [(+)-ABSCISIC ACID] was run?
Answer: Non-Toxic

Question: What about the inhibition [2] of the same compound?
Answer: Dose-dependent effect

Question: With `COc1cc([C@H]2OC[C@H]3[C@@H]2CO[C@@H]3c2cc(OC)c(O)c(OC)c2)cc(OC)c1O` [SYRINGARESINOL] as the compound, how does the Activity [1] read?
Answer: Non-Toxic

Question: What about the inhibition [2] of the same compound?
Answer: Dose-dependent effect

Question: `COc1ccc(-c2coc3cc(O)ccc3c2=O)cc1O` [CALYCOSIN] was tested. Which Activity [1] did it give?
Answer: Non-Toxic

Question: What about the inhibition [2] of the same compound?
Answer: Dose-dependent effect

Question: Which Activity [1] does the source give for `COc1cc([C@@H]2OC[C@@H]3[C@H]2CO[C@H]3c2ccc(O)c(OC)c2)ccc1O` [(+)-PINORESINOL] here?
Answer: Non-Toxic

Question: What about the inhibition [2] of the same compound?
Answer: Dose-dependent effect

Question: Which Activity [1] does the source give for `CC1=CC(=O)CC(C)(C)[C@@]1(O)/C=C/[C@@H](C)O` [BLUMENOL A] here?
Answer: Non-Toxic

Question: And the inhibition [2]?
Answer: Dose-dependent effect

Question: Which Activity [1] does the source give for `C=Cc1ccc(O)cc1OC` here?
Answer: Non-Toxic

Question: And the inhibition [2]?
Answer: Dose-dependent effect

Question: `COc1ccc(CO)cc1O` was tested. Which Activity [1] did it give?
Answer: Non-Toxic

Question: What about the inhibition [2] of the same compound?
Answer: Dose-dependent effect

Question: With `COc1cc(-c2oc3cc(O)cc(O)c3c(=O)c2O)ccc1O` [ISORHAMNETIN] as the compound, how does the Activity [1] read?
Answer: Non-Toxic

Question: And the inhibition [2]?
Answer: Dose-dependent effect

Question: Which Activity [1] does the source give for `COc1cc(OC)cc([C@@H]2OC[C@H]3[C@@H]2CO[C@H]3c2ccc(O)c(OC)c2)c1` here?
Answer: Non-Toxic

Question: And the inhibition [2]?
Answer: Dose-dependent effect

Question: Which Activity [1] does the source give for `COc1ccc(-c2coc3c(OC)c(O)ccc3c2=O)cc1O` here?
Answer: Non-Toxic

Question: And the inhibition [2]?
Answer: Dose-dependent effect

Question: With `COc1cc([C@@H]2OC[C@@H]3[C@H]2CO[C@H]3c2cc(OC)c(O[C@@H]3O[C@H](CO)[C@@H](O)[C@H](O)[C@H]3O)c(OC)c2)cc(OC)c1O` [ACANTHOSIDE B] as the compound, how does the Activity [1] read?
Answer: Non-Toxic

Question: What about the inhibition [2] of the same compound?
Answer: Dose-dependent effect

Question: `O=C(N[C@@H](Cc1ccccc1)C(=O)N[C@H](CO)Cc1ccccc1)c1ccccc1` was tested. Which Activity [1] did it give?
Answer: Non-Toxic

Question: And the inhibition [2]?
Answer: Dose-dependent effect

Question: What does the source list for `CC1=CC(C)(C)[C@@H](C)C1`?
Answer: Activity [1]: Non-Toxic; inhibition [2]: Dose-dependent effect

Question: What does the source list for `COc1ccc(-c2coc3cc(O)c(OC)cc3c2=O)cc1O` [ODORATIN]?
Answer: Activity [1]: Non-Toxic; inhibition [2]: Dose-dependent effect

Question: What does the source list for `C[C@@H]1O[C@@H](OC[C@H]2O[C@@H](Oc3c(-c4ccc(O)c(O)c4)oc4cc(O)cc(O)c4c3=O)[C@H](O[C@@H]3O[C@@H](C)[C@H](O)[C@@H](O)[C@H]3O)[C@@H](O)[C@@H]2O)[C@H](O)[C@H](O)[C@H]1O`?
Answer: Activity [1]: Non-Toxic; inhibition [2]: Dose-dependent effect

Question: `O=c1c(O[C@@H]2O[C@H](CO)[C@@H](O)[C@H](O)[C@H]2O)c(-c2ccc(O)c(O)c2)oc2cc(O)cc(O)c12` [ISOQUERCETIN] was tested. Which Activity [1] did it give?
Answer: Non-Toxic

Question: What about the inhibition [2] of the same compound?
Answer: Dose-dependent effect
